Measurements as given in PubChem BioAssay (NCI).
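In this assay, cells in 96-well plates receive the compound at five concentrations for 48 hours. Endpoints are linearly interpolated between the surrounding concentrations. TGI: concentration producing complete growth inhibition.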

What was measured:
Assay in all cases: growth of human tumour cells (NCI), 48 h
[1] = system: 786-0 renal
[2] = system: A549 NSCLC
[3] = system: ACHN renal
[4] = system: CAKI-1 renal
[5] = system: COLO 205 colon
[6] = system: DLD-1 colon
[7] = system: DMS 114 small cell lung
[8] = system: DMS 273 small cell lung
[9] = system: HCC-2998 colon
[10] = system: HCT-116 colon
[11] = system: HCT-15 colon
[12] = system: HOP-62 NSCLC
[13] = system: HOP-92 NSCLC
[14] = system: HT29 colon
[15] = system: IGROV1 ovarian
[16] = system: KM12 colon
[17] = system: KM20L2 colon
[18] = system: LOX IMVI melanoma
[19] = system: M14 melanoma
[20] = system: M19-MEL melanoma
[21] = system: MALME-3M melanoma
[22] = system: NCI-H226 lung
[23] = system: NCI-H23 lung
[24] = system: NCI-H460 lung
[25] = system: NCI-H522 lung
[26] = system: OVCAR-3 ovarian
[27] = system: OVCAR-4 ovarian
[28] = system: OVCAR-5 ovarian
[29] = system: OVCAR-8 ovarian
[30] = system: RPMI-8226 leukemia
[31] = system: RXF 393 renal
[32] = system: SF-268 CNS
[33] = system: SF-295 CNS
[34] = system: SF-539 CNS
[35] = system: SK-MEL-28 melanoma
[36] = system: SK-MEL-5 melanoma
[37] = system: SK-OV-3 ovarian
[38] = system: SN12C renal
[39] = system: SNB-19 CNS
[40] = system: SNB-75 CNS
[41] = system: SNB-78 CNS
[42] = system: SR leukemia
[43] = system: SW-620 colon
[44] = system: TK-10 renal
[45] = system: U251 CNS
[46] = system: UACC-257 melanoma
[47] = system: UACC-62 melanoma
[48] = system: UO-31 renal
[49] = system: XF 498 CNS

CC(c1ccccc1)N1O[C@]12CC[C@@]1(C)C(CCCC13OCCO3)C2 (some centres undefined)
TGI [1]: 36.5 µM | TGI [2]: 43 µM | TGI [3]: 30.3 µM | TGI [4]: 37.2 µM | TGI [5]: 32.5 µM | TGI [6]: 32.7 µM | TGI [7]: 27.4 µM | TGI [8]: 36 µM | TGI [9]: > 100 µM | TGI [10]: 29.6 µM | TGI [11]: 46.2 µM | TGI [12]: > 100 µM | TGI [13]: 23.7 µM | TGI [14]: 44.3 µM | TGI [15]: 12.1 µM | TGI [16]: 43.2 µM | TGI [17]: > 100 µM | TGI [18]: 26.2 µM | TGI [19]: 32.1 µM | TGI [20]: 51 µM | TGI [21]: 83.9 µM | TGI [22]: > 100 µM | TGI [23]: > 100 µM | TGI [24]: 38.1 µM | TGI [25]: 32 µM | TGI [26]: 34.4 µM | TGI [27]: 33.2 µM | TGI [28]: > 100 µM | TGI [29]: 37.2 µM | TGI [30]: > 100 µM | TGI [31]: 54.5 µM | TGI [32]: > 100 µM | TGI [33]: 44.3 µM | TGI [34]: > 100 µM | TGI [35]: > 100 µM | TGI [36]: 93.1 µM | TGI [37]: > 100 µM | TGI [38]: 75.6 µM | TGI [39]: > 100 µM | TGI [40]: 39 µM | TGI [41]: 40.9 µM | TGI [42]: 40.4 µM | TGI [43]: 34.4 µM | TGI [44]: 32.2 µM | TGI [45]: 37.6 µM | TGI [46]: 43.4 µM | TGI [47]: 35.4 µM | TGI [48]: 31.9 µM | TGI [49]: 44.3 µM
